{"source": "patent US6130229A", "about": "“Tricyclic compounds having activity as RAS-FPT inhibitors” (Schering Corporation, priority 1997, dated 2000)", "note": "pIC50: −log10 of the molar value."}
{"target": "farnesyl protein transferase", "experiment": "Inhibition of farnesyl protein transferase (test of WO 95/10514)", "format": "biochemical", "settings": "percent inhibition relative to DMSO vehicle control, IC50 estimated", "text": "The compounds of the invention can be tested by standard methods, for example by those published in published PCT application WO 95/10514 published Apr. 20, 1995 (starting at page 61), the disclosure of which is hereby incorporated herein by reference. Particularly relevant assays and studies include In vitro enzyme assays, Cell-Based Assays, Cell Mat Assays, and In Vivo Anti-Tumor Studies.\nSuch Assays and Studies indicate that compounds of the Formula I above are selective inhibitors of Ras-FPT and can be used as anti-tumor agents. The following Table presents IC50 values obtained in the test for Inhibition of farnesyl protein transferase, reported in published PCT application WO 95/10514. Percent inhibition was calculated relative to the DMSO vehicle control, and an IC50 value was estimated."}
{"smiles": "CC(C)(C)OC(=O)N1CCC(CC(=O)N2CCN(C3c4ccc(Cl)cc4SCc4cccnc43)CC2)CC1", "note": "(stereo not shown) [Example 11A, 1,1-Dimethylethyl 4-[2-[4-(8-chloro-5,11-dihydro-[1]benzothiepino[4,3-b]pyridin-11-yl)-1-piperazinyl]2-oxoethyl]-1-piperidinecarboxylate]", "pIC50": "< 5.96"}
{"smiles": "O=C(Cc1cc[n+]([O-])cc1)N1CCC(=C2c3cc(Br)c(Cl)cc3OCc3cccnc32)CC1", "note": "[Example 7A, 4-(9-Bromo-8-chloro-5,11-dihydro[1]benzoxepino[4,3-b]pyridin-11-ylidene)-1-(4-pyridine-acetyl)piperidine N1-oxide]", "pIC50": "< 6.40"}
{"smiles": "CC(C)(C)OC(=O)N1CCC(CC(=O)N2CCC(=C3c4ccc(Cl)cc4S(=O)(=O)Cc4cccnc43)CC2)CC1", "note": "[Example 27]", "pIC50": "< 5.92"}
{"smiles": "O=C(Cc1ccncc1)N1CCC(=C2c3ccc(Cl)cc3OCc3cccnc32)CC1", "note": "[Example 5, 4-(8-Chloro-5,11-dihydro[1]benz-oxepino[4,3-b]pyridin-11-ylidene)-1-(4-pyridine-acetyl)piperidine]", "pIC50": 6.12}
{"smiles": "O=C(Cc1ccncc1)N1CCC(=C2c3ccc(Cl)cc3S(=O)(=O)Cc3cccnc32)CC1", "note": "[Example 16B, 4-(8-Chloro-5,11-dihydro-[1]benzothiepino[4,3-b]pyridin-11-ylidene)-1-(4-pyridine-acetyl)piperidine 6,6-dioxide]", "pIC50": 6.25}
{"smiles": "O=C(Cc1ccncc1)N1CCN(C2c3ccc(Cl)cc3S(=O)(=O)Cc3cccnc32)CC1", "note": "(stereo not shown) [Example 16A, 4-(8-Chloro-5,11-dihydro-[1]benzothiepino[4,3-b]pyridin-11-yl)-1-(4-pyridine-acetyl)piperazine 6,6-dioxide]", "pIC50": 6.00}
{"smiles": "N#CNC(=NCc1ccncc1)N1CCN(C2c3ccc(Cl)cc3SCc3cccnc32)CC1", "note": "(stereo not shown) [Example 19, 4-(8-Chloro-5,11-dihydro[1]benzothiepino[4,3-b]pyridin-11-yl)-N-cyano-N'-(4-pyridinylmethyl)-1-piperazine-carboximidamide]", "pIC50": 7.21}
{"smiles": "O=C(Cc1cc[n+]([O-])cc1)N1CCC(=C2c3ccc(Cl)cc3OCc3cccnc32)CC1", "note": "[Example 7B, 4-(8-Chloro-5,11-dihydro[1]benzoxepino[4,3-b]pyridin-11-ylidene)-1-(4-pyridine-acetyl)piperidine N1-oxide]", "pIC50": 5.82}
{"smiles": "NC(=O)N1CCC(CC(=O)N2CCC(=C3c4ccc(Cl)cc4SCc4cccnc43)CC2)CC1", "note": "[Example 15B, 4-[2-[4-(8-Chloro-5,11-dihydro-[1]benzothiepino[4,3-b]pyridin-11-ylidene)-1-piperidinyl]-2-oxoethyl]-1-piperidinecarboxamide]", "pIC50": 6.04}
{"smiles": "NC(=O)N1CCC(CC(=O)N2CCC(=C3c4ccc(Cl)cc4S(=O)(=O)Cc4cccnc43)CC2)CC1", "note": "[Example 29, 4-[2-[4-(8-Chloro-5,11-dihydro-[1]benzothiepino[4,3-b]pyridin-11-ylidene)-1-piperidinyl]-2-oxoethyl]-1-piperidinecarboxamide-6,6-dioxide]", "pIC50": "< 5.96"}
{"smiles": "N#CN=C(NCc1ccc[n+]([O-])c1)N1CCN(C2c3ccc(Cl)cc3SCc3cccnc32)CC1", "note": "(stereo not shown) [Example 21, 4-(8-Chloro-5,11-dihydro[1]benzothiepino[4,3-b]pyridin-11-yl)-N-cyano-N'-(3-pyridinylmethyl)-1-piperazine-carboximidamide N1-oxide]", "pIC50": 6.85}
{"smiles": "O=C(CC1CCNCC1)N1CCC(=C2c3ccc(Cl)cc3S(=O)(=O)Cc3cccnc32)CC1", "note": "[Example 28, 4-(8-Chloro-5,11-dihydro-[1]benzothiepino[4,3-b]pyridin-11-ylidene)-1-(4-piperidine-acetyl)piperidine-6,6-dioxide]", "pIC50": "< 5.92"}
{"smiles": "CN1CCC(CC(=O)N2CCC(=C3c4ccc(Cl)cc4SCc4cccnc43)CC2)CC1", "note": "[Example 26, 4-(8-Chloro-5,11-dihydro[1]benzothiepino[4,3-b]pyridin-11-ylidene)-1-(1-methyl-4-piperidine-acetyl)-piperidine]", "pIC50": 5.75}
{"smiles": "CC1(C)c2cccnc2C(=C2CCN(C(=O)Cc3cc[n+]([O-])cc3)CC2)c2ccc(Cl)cc2S1(=O)=O", "note": "[Example 30, 4-(8-Chloro-5,11-dihydro-5,5-dimethyl-[1]benzothiepino[4,3-b]pyridin-11-ylidene)-1-(4-pyridine-acetyl)piperidine-6,6-dioxide N1-oxide]", "pIC50": "< 5.96"}
{"smiles": "O=C(CSc1ccncc1)N1CCN(C2c3ccc(Cl)cc3SCc3cccnc32)CC1", "note": "(stereo not shown) [Example 14A, 4-(8-Chloro-5,11-dihydro-[1]benzothiepino[4,3-b]pyridin-11-yl)-1-[(4-pyridinyl-thio)acetyl]piperazine]", "pIC50": 6.00}
{"smiles": "CN1Cc2cccnc2C(N2CCN(C(=O)CC3CCNCC3)CC2)c2ccc(Cl)cc21", "note": "(stereo not shown) [Example 39, 4-(8-Chloro-6,11-dihydro-6-methyl-5H-pyrido[3,2-c][1]benzazepin-11-yl)-1-(4-piperidine-acetyl)piperazine]", "pIC50": "< 5.89"}
{"smiles": "CN1Cc2cccnc2C(N2CCN(C(=O)Cc3cc[n+]([O-])cc3)CC2)c2ccc(Cl)cc21", "note": "(stereo not shown) [Example 34]", "pIC50": 5.57}
{"smiles": "N#CN=C(NCc1ccc[n+]([O-])c1)N1CCC(=C2c3ccc(Cl)cc3SCc3cccnc32)CC1", "note": "[Example 24]", "pIC50": 7.42}
{"smiles": "O=C(Cc1ccncc1)N1CCC(=C2c3ccc(Cl)cc3SCc3cccnc32)CC1", "note": "[Example 25, 4-(8-Chloro-5,11-dihydro[1]benzothiepino[4,3-b]pyridin-11-ylidene)-1-(pyridine-4-acetyl)-piperidine]", "pIC50": 6.72}
{"smiles": "CN1Cc2cccnc2C(N2CCN(C(=NCc3ccncc3)NC#N)CC2)c2ccc(Cl)cc21", "note": "(stereo not shown) [Example 37, 4-(8-Chloro-6,11-dihydro-6-methyl-5H-pyrido[3,2-c][1]benzazepin-11-yl)-N-cyano-N'-(4-pyridinylmethyl)-1-piperazine-carboximidamide]", "pIC50": 6.85}
{"smiles": "O=C(Cc1cc[n+]([O-])cc1)N1CCN(C2c3ccc(Cl)cc3SCc3cccnc32)CC1", "note": "(stereo not shown) [Example 9A, 4-(8-Chloro-5,11-dihydro-[1]benzothiepino[4,3-b]pyridin-11-yl)-1-(4-pyridine-acetyl)piperazine N1-oxide]", "pIC50": 6.10}
{"smiles": "O=C(Cc1cc[n+]([O-])cc1)N1CCN(C2c3ccc(Cl)cc3OCc3cccnc32)CC1", "note": "(stereo not shown) [Example 1, 4-(8-Chloro-5,11-dihydro[1]benzoxepino[4.3-b]pyridin-11-yl)-1-(4-pyridine-acetyl)-piperazine N1-oxide]", "pIC50": 5.89}
{"smiles": "O=C(Cc1ccccc1[N+](=O)[O-])C(=O)N1CCN(C2c3ccc(Cl)cc3SCc3cccnc32)CC1", "note": "(stereo not shown) [Example 13]", "pIC50": 5.42}
{"smiles": "N#CNC(=NCc1ccncc1)N1CCC(=C2c3ccc(Cl)cc3OCc3cccnc32)CC1", "note": "[Example 3, 4-(8-Chloro-5,11-dihydro[1]benzoxepino[4,3-b]pyridin-11-ylidene)-N-cyano-N'-(4-pyridinylmethyl)-1-piperidine-carboximidamide]", "pIC50": "< 7.38"}
{"smiles": "CN1Cc2cccnc2C(N2CCN(C(=O)Cc3ccncc3)CC2)c2ccc(Cl)cc21", "note": "(stereo not shown) [Example 35, 4-(8-Chloro-6,11-dihydro-6-methyl-5H-pyrido[3,2-c][1]benzazepin-11-yl)-1-(4-pyridine-acetyl)piperazine]", "pIC50": 6.08}
{"smiles": "CN1Cc2cccnc2C(N2CCN(C(=O)CC3CCN(C(=O)OC(C)(C)C)CC3)CC2)c2ccc(Cl)cc21", "note": "(stereo not shown) [Example 38, 1,1-Dimethylethyl 4-[2-[4-(8-chloro-6,11-dihydro-6-methyl-5H-pyrido[3,2-c][1]benzazepin-11-yl)-1-piperazinyl]2-oxoethyl]-1-piperidine-carboxylate]", "pIC50": "< 5.44"}
{"smiles": "N#CNC(=NCc1ccncc1)N1CCC(=C2c3ccc(Cl)cc3SCc3cccnc32)CC1", "note": "[Example 23, 4-(8-Chloro-5,11-dihydro[1]benzothiepino[4,3-b]pyridin-11-ylidene)-N-cyano-N'-(4-pyridinylmethyl)-1-piperidine-carboximidamide]", "pIC50": 7.37}
{"smiles": "O=C(Cc1cc[n+]([O-])cc1)N1CCC(=C2c3ccc(Cl)cc3OCc3cc(Br)cnc32)CC1", "note": "[Example 4, 4-(3-Bromo-8-chloro-5,11-dihydro[1]benzoxepino[4,3-b]pyridin-11-ylidene)-1-(4-pyridine-acetyl)piperidine N1-oxide]", "pIC50": 6.96}
{"smiles": "O=C(Cc1ccncc1)N1CCN(C2c3ccc(Cl)cc3SCc3cccnc32)CC1", "note": "(stereo not shown) [Example 8, 4-(8-Chloro-5,11-dihydro-[1]benzothiepino[4,3-b]pyridin-11-yl)-1-(4-pyridinyl-acetyl)piperazine]", "pIC50": 6.49}
{"smiles": "CSC(=NC#N)N1CCC(=C2c3ccc(Cl)cc3SCc3cccnc32)CC1", "note": "[Example 22]", "pIC50": 6.70}
{"smiles": "N#CC=C(c1ccc(F)cc1)N1CCC(=C2c3ccc(Cl)cc3SCc3cccnc32)CC1", "note": "[Example 33, 3-[4-(8-Chloro-5,11-dihydro-[1]benzothiepino[4,3-b]pyridin-11-ylidene)-piperidin-1-yl]-3-(4'-fluorophenyl)-2-propene-nitrile]", "pIC50": "< 6.38"}
{"smiles": "O=C(Cc1cccnc1)N1CCC(=C2c3ccc(Cl)cc3OCc3cccnc32)CC1", "note": "[Example 6, 4-(8-Chloro-5,11-dihydro[1]benz-oxepino[4,3-b]pyridin-11-ylidene)-1-(3-pyridine-acetyl)piperidine]", "pIC50": 5.64}
{"smiles": "O=C(Cc1cc[n+]([O-])cc1)N1CCN(C2c3ccc(Cl)cc3[S+]([O-])Cc3cccnc32)CC1", "note": "(stereo not shown) [Example 17A (sulfoxide), 4-(8-Chloro-5,11-dihydro-[1]benzothiepino[4,3-b]pyridin-11-yl)-1-(4-pyridine-acetyl)piperazine N1,6,-dioxide]", "pIC50": "< 5.40"}
{"smiles": "O=C(Cc1ccncc1)N1CCN(C2c3ccc(Cl)cc3[S+]([O-])Cc3cccnc32)CC1", "note": "(stereo not shown) [Example 31, 4-(8-Chloro-5,11-dihydro-[1]benzothiepino[4,3-b]pyridin-11-yl)-1-(4-pyridine-acetyl)piperazine-6-oxide]", "pIC50": 5.30}
